Results on one compound are retold here after patent US12636274B2, “Pharmaceutical compositions and methods for systemic treatment of solid tumors” (7 HILLS INTERESTS LLC, priority 2014, dated 2026).

The test system of data set [1] is ICAM-1. The data set is described as follows: Cell migration across ICAM-1 membrane toward SDF-1. Type of data set: cell-based. As to conditions: FIG. 5; different concentrations; SDF-1 in bottom part. Here is the method: (§1) Referring now to FIG. 5, an apparatus for testing VCAM-1 and ICAM-1 cell migration, where the cells are initially placed in the top part of the apparatus including a member including VCAM-1 or ICAM-1, with the bottom part of the apparatus initially including SDF-1. Cell migration is then measured from top part to the bottom part for different concentration of CDPD 1, a compound of Formula (I) of VCAM-1 and ICAM-1 impregnated membrane.

Data set [2] is described as follows: Safety margin (STD 10) and autoimmune toxicity. As to conditions: in vivo.
Data set [3] can be described thus: Clinical symptoms in monkeys. In kind it is in vivo.
The target of data set [4] is α2b1/Collagen I (Homo sapiens, UniProt P05556+P17301). Briefly: Integrin activation, adhesion α2b1/Collagen I. Particulars: 50% serum; n = 3. Also on record: key: Not Active: Not active: ≤2 fold increase in adhesion. Type of data set: cell-based. From the text:
(§2) Activating all integrins is necessary for firm endothelial cell adhesion for extravasation.

Data set [5] has as its target T1, α4β7/MAcDAM-1 (Homo sapiens, UniProt P13612+P26010).
T1 sequence (P13612 34-1032): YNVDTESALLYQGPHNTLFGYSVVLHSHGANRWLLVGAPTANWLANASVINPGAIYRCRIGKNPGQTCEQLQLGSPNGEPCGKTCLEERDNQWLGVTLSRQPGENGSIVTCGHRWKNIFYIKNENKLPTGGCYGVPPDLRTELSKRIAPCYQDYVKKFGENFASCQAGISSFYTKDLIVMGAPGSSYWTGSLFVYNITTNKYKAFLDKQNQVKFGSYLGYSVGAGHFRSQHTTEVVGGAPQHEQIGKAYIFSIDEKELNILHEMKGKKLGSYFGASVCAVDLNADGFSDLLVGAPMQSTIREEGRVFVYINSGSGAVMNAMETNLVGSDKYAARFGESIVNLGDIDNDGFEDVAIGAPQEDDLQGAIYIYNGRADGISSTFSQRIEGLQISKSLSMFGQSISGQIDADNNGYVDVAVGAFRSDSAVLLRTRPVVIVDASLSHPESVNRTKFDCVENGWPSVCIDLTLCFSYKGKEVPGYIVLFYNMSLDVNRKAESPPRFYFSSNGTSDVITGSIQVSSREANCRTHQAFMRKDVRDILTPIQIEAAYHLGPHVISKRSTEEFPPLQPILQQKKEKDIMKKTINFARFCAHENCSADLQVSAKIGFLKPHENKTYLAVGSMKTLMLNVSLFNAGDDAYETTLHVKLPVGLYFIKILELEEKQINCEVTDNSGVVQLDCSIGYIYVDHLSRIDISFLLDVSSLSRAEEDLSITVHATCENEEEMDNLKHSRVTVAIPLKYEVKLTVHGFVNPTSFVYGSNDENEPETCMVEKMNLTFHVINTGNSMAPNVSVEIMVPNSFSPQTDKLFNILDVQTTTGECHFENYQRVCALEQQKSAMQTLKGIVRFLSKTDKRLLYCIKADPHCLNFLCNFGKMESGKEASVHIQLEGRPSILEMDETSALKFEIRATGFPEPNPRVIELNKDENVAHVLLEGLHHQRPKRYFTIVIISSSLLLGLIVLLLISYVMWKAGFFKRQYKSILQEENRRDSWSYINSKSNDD
T1 sequence (P26010 20-798): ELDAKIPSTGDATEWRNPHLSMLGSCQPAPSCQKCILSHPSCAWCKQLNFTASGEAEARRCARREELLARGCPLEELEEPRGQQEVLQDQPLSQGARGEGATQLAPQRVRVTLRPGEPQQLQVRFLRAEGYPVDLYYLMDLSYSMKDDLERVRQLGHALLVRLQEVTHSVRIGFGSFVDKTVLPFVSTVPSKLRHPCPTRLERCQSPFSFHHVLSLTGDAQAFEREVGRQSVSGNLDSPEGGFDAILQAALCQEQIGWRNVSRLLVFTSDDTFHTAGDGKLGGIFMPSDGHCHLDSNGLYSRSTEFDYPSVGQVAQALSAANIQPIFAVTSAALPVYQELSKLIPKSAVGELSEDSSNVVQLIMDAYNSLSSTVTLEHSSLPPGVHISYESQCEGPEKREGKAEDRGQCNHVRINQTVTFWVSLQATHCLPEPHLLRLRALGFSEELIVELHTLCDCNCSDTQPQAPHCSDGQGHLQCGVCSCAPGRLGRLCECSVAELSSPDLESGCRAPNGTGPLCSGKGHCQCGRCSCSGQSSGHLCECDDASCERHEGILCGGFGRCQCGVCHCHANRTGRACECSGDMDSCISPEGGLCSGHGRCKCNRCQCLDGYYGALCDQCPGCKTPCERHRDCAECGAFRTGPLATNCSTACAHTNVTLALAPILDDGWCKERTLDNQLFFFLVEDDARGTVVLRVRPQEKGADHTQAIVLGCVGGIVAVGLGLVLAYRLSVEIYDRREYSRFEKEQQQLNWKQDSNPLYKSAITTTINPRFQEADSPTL
The data set is described as follows: Integrin activation, adhesion α4β7/MAcDAM-1. In kind it is cell-based. Particulars: 50% serum; n = 3; read-out: Integrin Selectivity EC50 α4β7/MAcDAM-1.
From the text: as §2

In data set [6] the target is VLA-4/VCAM-1 (Homo sapiens, UniProt P05556+P13612). The data set is described as follows: VLA-4 (α4β1) dependent cell adhesion to VCAM-1. In kind it is cell-based. Particulars: FIG. 3; VCAM-1 and Cmpd 1 versus BSA, VCAM-1 alone, Ig and anti-integrin antibodies.
From the text: Referring now to FIG. 3, a histogram is shown of induced VLA-4 (α4β1) dependent cell adhesion to VCAM-1 in the presence of BSA, VCAM-1, VCAM-1 and a compound of Formula (I) (Cmpd 1), Ig, anti-α4, anti-αL, anti-β1, and anti-β2.
as §2

Data set [7] has as its target α1b1/Collagen IV (Homo sapiens, UniProt P05556+P56199). Briefly: Integrin activation, adhesion α1b1/Collagen IV. Type of data set: cell-based. On the set-up: key: Not Active: Not active: ≤2 fold increase in adhesion. Particulars: 50% serum; n = 3.
From the text: as §2

Data set [8] concerns the target aiibb3/Fibrinogen (Homo sapiens, UniProt P05106+P08514). The data set is described as follows: Integrin activation, adhesion aiibb3/Fibrinogen. In kind it is cell-based. Also on record: key: Not Active: Not active: ≤2 fold increase in adhesion. Particulars: 50% serum; n = 3.
From the text: as §2

Data set [9] has as its target LFA-1/ICAM-1 (Homo sapiens, UniProt P05107+P20701). The data set is described as follows: LFA-1 dependent cell adhesion to ICAM-1. In kind it is cell-based. As to conditions: FIG. 4; ICAM-1 and Cmpd 1 versus BSA, ICAM-1 alone, Ig and anti-integrin antibodies.
From the text: Referring now to FIG. 4, a histogram is shown of induced LFA-1 ([…]) dependent cell adhesion to ICAM-1 in the presence of BSA, ICAM-1, ICAM-1 and a compound of Formula (I) (Cmpd 1), Ig, anti-α4, anti-αL, anti-β1, and anti-β2.
as §2

Data set [10] concerns VCAM-1. Briefly: Cell migration across VCAM-1 membrane toward SDF-1. Type of data set: cell-based. As to conditions: FIG. 5; different concentrations; SDF-1 in bottom part. The procedure: as §1

Chain of aiibb3/Fibrinogen (P08514 32-887 limits assumed): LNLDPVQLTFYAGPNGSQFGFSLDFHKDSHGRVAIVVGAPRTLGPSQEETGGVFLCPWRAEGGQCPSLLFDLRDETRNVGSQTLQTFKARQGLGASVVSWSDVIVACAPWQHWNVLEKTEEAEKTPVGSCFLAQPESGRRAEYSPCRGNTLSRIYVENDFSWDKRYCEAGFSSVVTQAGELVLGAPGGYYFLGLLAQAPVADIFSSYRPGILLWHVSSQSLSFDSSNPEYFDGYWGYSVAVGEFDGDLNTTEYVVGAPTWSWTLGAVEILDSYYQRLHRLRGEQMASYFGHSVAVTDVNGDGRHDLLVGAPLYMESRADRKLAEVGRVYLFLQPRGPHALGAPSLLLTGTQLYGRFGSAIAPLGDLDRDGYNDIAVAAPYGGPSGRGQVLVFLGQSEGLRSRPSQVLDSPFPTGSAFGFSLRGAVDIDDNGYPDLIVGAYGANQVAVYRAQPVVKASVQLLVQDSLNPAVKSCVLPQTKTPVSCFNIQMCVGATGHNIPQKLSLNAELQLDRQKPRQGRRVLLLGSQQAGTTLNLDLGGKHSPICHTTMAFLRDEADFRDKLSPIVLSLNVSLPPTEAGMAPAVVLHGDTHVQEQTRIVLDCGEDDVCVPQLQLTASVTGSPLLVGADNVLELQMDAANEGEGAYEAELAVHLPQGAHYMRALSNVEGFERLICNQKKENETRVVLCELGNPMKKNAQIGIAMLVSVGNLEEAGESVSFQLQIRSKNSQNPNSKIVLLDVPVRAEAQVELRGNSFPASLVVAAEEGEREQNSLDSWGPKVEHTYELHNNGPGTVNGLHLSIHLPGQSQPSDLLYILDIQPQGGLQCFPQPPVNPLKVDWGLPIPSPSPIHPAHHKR
Chain of aiibb3/Fibrinogen (P08514 891-1039 limits assumed): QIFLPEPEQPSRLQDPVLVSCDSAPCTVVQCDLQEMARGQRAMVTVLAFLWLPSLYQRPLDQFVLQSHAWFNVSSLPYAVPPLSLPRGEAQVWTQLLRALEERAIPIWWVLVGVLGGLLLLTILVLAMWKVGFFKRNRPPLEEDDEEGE
Chain of aiibb3/Fibrinogen (P05106 27-788): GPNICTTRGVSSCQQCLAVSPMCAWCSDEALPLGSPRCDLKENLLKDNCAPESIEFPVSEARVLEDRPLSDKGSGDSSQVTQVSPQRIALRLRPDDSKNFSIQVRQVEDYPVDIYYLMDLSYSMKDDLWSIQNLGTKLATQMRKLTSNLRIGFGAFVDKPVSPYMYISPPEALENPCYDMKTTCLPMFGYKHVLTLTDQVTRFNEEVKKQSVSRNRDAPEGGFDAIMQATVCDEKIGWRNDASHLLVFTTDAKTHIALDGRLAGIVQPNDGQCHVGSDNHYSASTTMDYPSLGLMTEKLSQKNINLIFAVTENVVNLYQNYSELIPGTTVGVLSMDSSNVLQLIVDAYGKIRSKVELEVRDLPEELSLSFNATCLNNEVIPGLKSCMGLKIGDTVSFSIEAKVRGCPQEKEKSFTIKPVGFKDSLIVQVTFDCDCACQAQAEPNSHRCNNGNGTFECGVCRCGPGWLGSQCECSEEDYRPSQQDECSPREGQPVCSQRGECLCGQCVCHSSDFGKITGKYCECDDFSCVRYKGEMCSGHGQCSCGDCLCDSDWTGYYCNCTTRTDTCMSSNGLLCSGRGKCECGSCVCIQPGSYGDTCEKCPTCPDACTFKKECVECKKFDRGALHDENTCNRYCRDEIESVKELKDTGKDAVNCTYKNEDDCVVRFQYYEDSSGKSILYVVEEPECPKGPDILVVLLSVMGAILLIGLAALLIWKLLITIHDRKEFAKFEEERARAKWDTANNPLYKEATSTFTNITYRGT
Chain of VLA-4/VCAM-1 (P05556 21-798, one chain of several): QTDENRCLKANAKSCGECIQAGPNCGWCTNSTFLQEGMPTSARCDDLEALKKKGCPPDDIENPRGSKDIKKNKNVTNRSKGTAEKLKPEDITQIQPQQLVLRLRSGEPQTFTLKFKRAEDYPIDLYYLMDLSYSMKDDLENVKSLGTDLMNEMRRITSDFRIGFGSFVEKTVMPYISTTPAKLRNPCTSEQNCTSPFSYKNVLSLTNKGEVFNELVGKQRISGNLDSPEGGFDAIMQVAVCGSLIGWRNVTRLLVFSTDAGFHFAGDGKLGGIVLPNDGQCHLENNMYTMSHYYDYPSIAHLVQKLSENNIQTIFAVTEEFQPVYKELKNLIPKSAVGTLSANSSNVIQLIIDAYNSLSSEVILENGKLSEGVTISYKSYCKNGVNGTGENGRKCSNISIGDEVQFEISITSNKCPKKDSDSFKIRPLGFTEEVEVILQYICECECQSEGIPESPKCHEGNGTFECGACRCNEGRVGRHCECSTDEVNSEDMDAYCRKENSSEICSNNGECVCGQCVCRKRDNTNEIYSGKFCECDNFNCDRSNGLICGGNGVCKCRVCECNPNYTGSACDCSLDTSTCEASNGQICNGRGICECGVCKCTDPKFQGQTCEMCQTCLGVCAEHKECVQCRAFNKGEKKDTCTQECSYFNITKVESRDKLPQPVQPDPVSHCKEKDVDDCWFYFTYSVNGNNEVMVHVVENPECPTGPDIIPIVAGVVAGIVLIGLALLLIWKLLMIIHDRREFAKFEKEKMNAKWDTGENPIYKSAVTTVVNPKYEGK
Chain of α2b1/Collagen I (P17301 30-1181): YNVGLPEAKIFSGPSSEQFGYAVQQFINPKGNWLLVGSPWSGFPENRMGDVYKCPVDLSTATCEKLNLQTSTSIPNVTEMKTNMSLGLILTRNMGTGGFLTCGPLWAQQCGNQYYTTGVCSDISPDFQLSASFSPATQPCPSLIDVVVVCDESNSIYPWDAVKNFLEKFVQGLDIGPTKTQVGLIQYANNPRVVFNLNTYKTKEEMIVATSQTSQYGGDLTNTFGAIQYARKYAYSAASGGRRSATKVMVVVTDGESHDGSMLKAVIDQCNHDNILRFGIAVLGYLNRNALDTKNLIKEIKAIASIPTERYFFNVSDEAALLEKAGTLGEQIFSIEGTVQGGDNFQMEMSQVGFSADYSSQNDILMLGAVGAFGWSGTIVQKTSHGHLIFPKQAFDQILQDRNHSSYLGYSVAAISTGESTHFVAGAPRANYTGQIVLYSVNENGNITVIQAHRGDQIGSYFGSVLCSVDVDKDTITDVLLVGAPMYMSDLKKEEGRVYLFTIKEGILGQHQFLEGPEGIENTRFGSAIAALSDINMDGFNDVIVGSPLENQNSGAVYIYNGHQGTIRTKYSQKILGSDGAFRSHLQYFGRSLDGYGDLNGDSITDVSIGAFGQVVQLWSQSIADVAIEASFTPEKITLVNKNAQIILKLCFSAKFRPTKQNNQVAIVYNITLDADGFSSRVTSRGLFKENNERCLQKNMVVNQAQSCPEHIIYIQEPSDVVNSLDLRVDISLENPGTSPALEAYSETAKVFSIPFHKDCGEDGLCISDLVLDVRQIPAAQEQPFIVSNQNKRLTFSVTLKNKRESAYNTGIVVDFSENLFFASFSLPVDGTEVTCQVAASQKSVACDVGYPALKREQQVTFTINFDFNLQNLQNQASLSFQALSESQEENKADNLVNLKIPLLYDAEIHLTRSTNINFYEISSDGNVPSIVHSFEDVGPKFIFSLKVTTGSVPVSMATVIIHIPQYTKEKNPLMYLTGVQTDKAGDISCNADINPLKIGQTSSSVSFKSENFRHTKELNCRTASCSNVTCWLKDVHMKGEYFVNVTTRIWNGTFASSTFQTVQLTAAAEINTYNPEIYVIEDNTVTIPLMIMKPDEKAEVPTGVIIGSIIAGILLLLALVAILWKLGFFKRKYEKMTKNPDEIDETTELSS
Chain of α2b1/Collagen I (P05556 21-798): as the sequence (P05556 21-798, one chain of several) above
Chain of α1b1/Collagen IV (P56199 29-1179): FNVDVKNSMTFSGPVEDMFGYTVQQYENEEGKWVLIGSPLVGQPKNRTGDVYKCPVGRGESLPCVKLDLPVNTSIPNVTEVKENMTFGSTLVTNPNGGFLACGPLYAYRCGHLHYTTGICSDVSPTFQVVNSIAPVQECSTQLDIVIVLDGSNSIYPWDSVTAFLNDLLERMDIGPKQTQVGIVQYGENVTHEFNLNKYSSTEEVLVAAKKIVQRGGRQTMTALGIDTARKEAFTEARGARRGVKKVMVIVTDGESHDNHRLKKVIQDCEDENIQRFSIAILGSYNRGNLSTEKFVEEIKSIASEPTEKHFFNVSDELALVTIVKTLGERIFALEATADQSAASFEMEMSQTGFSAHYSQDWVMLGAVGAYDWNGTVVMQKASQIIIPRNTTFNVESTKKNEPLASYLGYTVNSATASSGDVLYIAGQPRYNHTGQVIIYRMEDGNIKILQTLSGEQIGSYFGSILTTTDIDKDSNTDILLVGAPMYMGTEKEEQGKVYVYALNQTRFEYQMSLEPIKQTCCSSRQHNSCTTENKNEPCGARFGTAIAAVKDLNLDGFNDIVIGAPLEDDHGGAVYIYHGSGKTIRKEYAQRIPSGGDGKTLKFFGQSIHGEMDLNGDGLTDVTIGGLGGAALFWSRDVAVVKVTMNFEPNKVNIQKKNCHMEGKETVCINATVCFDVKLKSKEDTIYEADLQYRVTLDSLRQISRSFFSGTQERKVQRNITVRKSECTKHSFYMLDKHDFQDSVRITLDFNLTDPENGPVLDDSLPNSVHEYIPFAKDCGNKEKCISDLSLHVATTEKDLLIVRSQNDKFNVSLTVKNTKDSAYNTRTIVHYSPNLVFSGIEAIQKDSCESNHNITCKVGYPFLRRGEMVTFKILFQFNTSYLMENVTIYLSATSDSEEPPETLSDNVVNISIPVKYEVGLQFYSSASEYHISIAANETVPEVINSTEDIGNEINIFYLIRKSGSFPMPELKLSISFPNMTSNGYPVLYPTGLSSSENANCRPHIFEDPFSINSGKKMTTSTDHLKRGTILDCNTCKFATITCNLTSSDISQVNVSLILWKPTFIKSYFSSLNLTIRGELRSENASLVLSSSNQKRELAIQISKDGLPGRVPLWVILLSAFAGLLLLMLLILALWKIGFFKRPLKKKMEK
Chain of α1b1/Collagen IV (P05556 21-798): as the sequence (P05556 21-798, one chain of several) above

On to `O=C(OCCOCCOCCOC(=O)N(Cc1cccs1)Cc1cccs1)N(Cc1cccs1)Cc1cccs1` [Compound 1, 3-oxo-1-(2-thienyl)-2-(2-thienylmethyl)-4,7,10-trioxa-2-azadodecan-12-yl bis(2-thienylmethyl)carbamate], for which the “cell migration, ICAM-1” value in [1] is recorded as “migration enhancement”. Further, in data set [2], the autoimmune toxicity entry is given as “no autoimmune toxicity” and the “safety margin (STD 10)” value was > 300 times therapeutic exposure. In addition, in data set [3], the “exposure up to which no clinical symptoms” value is ~50 times therapeutic exposure and the “exposure with no adverse clinical symptoms” value is > 50 times therapeutic exposure. In [4], the “Integrin Selectivity EC50 α2b1/Collagen I” value is “Not Active”. In addition, the EC50 in data set [5] was determined as 10 ± 2.1 µM. Further, in data set [6], the “bound cells, adhesion to VCAM-1” value is on record as “highest bound cells”. Besides, in data set [7], the “Integrin Selectivity EC50 α1b1/Collagen IV” value is reported as “Not Active”. For the same compound, the “Integrin Selectivity EC50 aiibb3/Fibrinogen” value in data set [8] is reported as “Not Active”. Moreover, the “bound cells, adhesion to ICAM-1” value in [9] is on record as “highest bound cells”. Moreover, the “cell migration, VCAM-1” value in data set [10] is reported as “migration enhancement”.
